The source of these data is patent publication US20200270233A1, “DHFR INHIBITORS, COMPOSITIONS, AND METHODS RELATED THERETO” (Vyera Pharmaceuticais LLC, priority 2017, published 2020).

In assay [1] the target is T1, hDHFR (Homo sapiens, UniProt P00374).
T1 sequence (P00374 1-187): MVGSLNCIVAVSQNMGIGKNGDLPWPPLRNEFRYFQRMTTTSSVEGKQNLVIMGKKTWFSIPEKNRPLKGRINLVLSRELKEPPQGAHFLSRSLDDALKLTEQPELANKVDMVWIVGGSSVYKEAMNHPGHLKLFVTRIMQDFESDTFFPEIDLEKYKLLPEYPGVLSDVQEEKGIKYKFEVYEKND
In kind it is biochemical.

Assay [2] concerns the target T2, T. gondii DHFR (tgDHFR) (Toxoplasma gondii, UniProt Q07422).
T2 sequence (Q07422 1-610): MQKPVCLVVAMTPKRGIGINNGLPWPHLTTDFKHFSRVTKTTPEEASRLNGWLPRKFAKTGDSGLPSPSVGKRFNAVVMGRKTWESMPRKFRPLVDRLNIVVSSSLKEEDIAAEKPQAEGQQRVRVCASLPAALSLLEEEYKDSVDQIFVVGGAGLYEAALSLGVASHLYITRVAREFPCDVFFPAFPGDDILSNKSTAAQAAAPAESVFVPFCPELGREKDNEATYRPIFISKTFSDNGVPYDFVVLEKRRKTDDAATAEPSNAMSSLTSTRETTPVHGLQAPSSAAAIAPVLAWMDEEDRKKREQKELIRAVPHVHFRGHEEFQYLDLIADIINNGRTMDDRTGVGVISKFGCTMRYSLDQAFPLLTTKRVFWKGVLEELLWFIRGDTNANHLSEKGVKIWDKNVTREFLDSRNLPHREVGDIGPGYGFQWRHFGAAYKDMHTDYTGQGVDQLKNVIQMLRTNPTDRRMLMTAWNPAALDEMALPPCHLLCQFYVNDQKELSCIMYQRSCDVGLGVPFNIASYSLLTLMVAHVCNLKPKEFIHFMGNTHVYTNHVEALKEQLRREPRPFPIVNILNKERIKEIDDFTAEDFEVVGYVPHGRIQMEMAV
As to the kind of experiment: biochemical. The following applies: for Average DHFR selectivity (h/tg): hDHFR IC50/tgDHFR IC50.

The mark [3] stands for this setting: Table 16, pIC50 = -log10 IC50, at least three replicates, read-out: hDHFR pIC50-DHFR primary assay (converted).
The mark [4] stands for this setting: Table 18, pIC50 = -log10 IC50, at least three replicates, read-out: hDHFR pIC50-DHFR primary assay (converted).
The mark [5] stands for this setting: Table 16, pIC50 = -log10 IC50, at least three replicates, read-out: tgDHFR pIC50-DHFR primary assay (converted).

SMILES strings stand for the structures. Where two headings read alike, the source gives them in different places.

For `Nc1ncc(N2CCN(c3ccc(Cl)c(Cl)c3)CC2)c(N)n1` [Compound 1, 5-(4-(3,4-dichlorophenyl)piperazin-1-yl)pyrimidine-2,4-diamine], the IC50 was 0.0759 µM in assay [1] (setting [3]) and 0.0138 µM in assay [2].
Regarding `Nc1ncc(N2CCN(c3cccc(Br)c3)CC2)c(N)n1` [Compound 11, 5-(4-(3-bromophenyl)piperazin-1-yl)pyrimidine-2,4-diamine], the IC50 in assay [1] (setting [3]) was 0.437 µM; in assay [2], 0.0117 µM.
The corresponding values for `Nc1ncc(N2CCC(c3ccccc3)CC2)c(N)n1` [Compound 15, 5-(4-phenylpiperidin-1-yl)pyrimidine-2,4-diamine] are 4.07 µM and 0.162 µM.
As to `Nc1ncc(N2CCN(c3cccc(N4CCOCC4)c3)CC2)c(N)n1` [Compound 25, 5-(4-(3-morpholinophenyl)piperazin-1-yl)pyrimidine-2,4-diamine], the figures for the IC50 in assay [1] (setting [3]) and in assay [2] were 14.1 µM and 0.138 µM, respectively.
In the case of `CC1CN(c2cnc(N)nc2N)CCN1c1cccc(-c2ccccc2)c1` (stereo not shown) [Compound 26, 5-(4-([1,1′-biphenyl]-3-yl)-3-methylpiperazin-1-yl)pyrimidine-2,4-diamine], the IC50 in assay [1] (setting [3]) was 0.0302 µM; in assay [2] it was 0.002 µM.
In the same order, the values of `CC1CN(c2cccc(-c3ccccc3)c2)CCN1c1cnc(N)nc1N` (stereo not drawn) [Compound 27, 5-(4-([1,1′-biphenyl]-3-yl)-2-methylpiperazin-l-yl)pyrimidine-2,4-diamine] are 30.2 µM and 0.138 µM.
The corresponding values for `CCc1nc(N)nc(N)c1N1CCN(c2ccccc2)CC1` [Compound 28, 6-ethyl-5-(4-phenylpiperazin-1-yl)pyrimidine-2,4-diamine] are 1.35 µM and 0.00575 µM.
In the same order, the values of `CCc1nc(N)nc(N)c1N1CCN(c2cccc(C)c2)CC1` [Compound 31, 6-ethyl-5-(4-(m-tolyl)piperazin-1-yl)pyrimidine-2,4-diamine] are 0.417 µM and 0.00347 µM.
In the case of `CCc1nc(N)nc(N)c1N1CCN(c2cccc(OC)c2)CC1` [Compound 33, 6-ethyl-5-(4-(3-methoxyphenyl)piperazin-1-yl)pyrimidine-2,4-diamine], the IC50 in assay [1] (hDHFR pIC50-DHFR primary assay) is 0.525 µM; in assay [2] it was 0.00437 µM.
In the case of `CCc1nc(N)nc(N)c1N1CCN(c2ccccn2)CC1` [Compound 34, 6-ethyl-5-(4-(pyridin-2-yl)piperazin-1-yl)pyrimidine-2,4-diamine], the figures for the IC50 in assay [1] (setting [3]) and in assay [2] were 1.02 µM and 0.00646 µM, respectively.
Consider `CCc1nc(N)nc(N)c1N1CCN(c2ccc(F)cc2)CC1` [Compound 35, 6-ethyl-5-(4-(4-fluorophenyl)piperazin-1-yl)pyrimidine-2,4-diamine], for which the IC50 in assay [2] was 0.00692 µM.
For `CCc1nc(N)nc(N)c1N1CCN(c2ccncc2)CC1` [Compound 36, 6-ethyl-5-(4-(pyridin-4-yl)piperazin-1-yl)pyrimidine-2,4-diamine], the IC50 is 30.2 µM in assay [1] (setting [3]) and 0.269 µM in assay [2].
In the same order, the values of `CCc1nc(N)nc(N)c1N1CCN(c2ccc(C)cc2)CC1` [Compound 39, 6-ethyl-5-(4-(p-tolyl)piperazin-1-yl)pyrimidine-2,4-diamine] are 1.74 µM and 0.0123 µM.
Regarding `CCc1nc(N)nc(N)c1N1CCN(c2ccc(F)cn2)CC1` [Compound 44, 6-ethyl-5-(4-(5-fluoropyridin-2-yl)piperazin-1-yl)pyrimidine-2,4-diamine], the IC50 is 0.295 µM in assay [1] (setting [3]) and 0.00417 µM in assay [2].
Regarding `CCc1nc(N)nc(N)c1N1CCN(c2ccc(C)cn2)CC1` [Compound 45, 6-ethyl-5-(4-(5-methylpyridin-2-yl)piperazin-1-yl)pyrimidine-2,4-diamine], the IC50 is 0.794 µM in assay [1] (setting [3]) and 0.00589 µM in assay [2].
As for `Cc1nc(N)nc(N)c1N1CCN(c2cccc(Cl)c2)CC1` [Compound 46, 5-(4-(3-chlorophenyl)piperazin-1-yl)-6-methylpyrimidine-2,4-diamine], the IC50 in assay [1] is 0.24 µM; in assay [2], 0.00813 µM. In assay [2] (Table 16), the “Average DHFR selectivity (h/tg)” value came out at 29.68.
With `Cc1nc(N)nc(N)c1N1CCN(c2ccccc2)CC1` [Compound 47, 6-methyl-5-(4-phenylpiperazin-1-yl)pyrimidine-2,4-diamine], the IC50 was 2.24 µM in assay [1] (setting [3]) and 0.0263 µM in assay [2].
Turning to `CCCc1nc(N)nc(N)c1N1CCC(c2ccccc2)CC1` [Compound 51, 5-(4-phenylpiperidin-1-yl)-6-propylpyrimidine-2,4-diamine], the IC50 in assay [1] (setting [3]) is 2.45 µM; in assay [2], 0.0117 µM.
In the same order, the values of `CCCc1nc(N)nc(N)c1N1CCN(c2ccc(F)cc2)CC1` [Compound 52, 5-(4-(4-fluorophenyl)piperazin-1-yl)-6-propylpyrimidine-2,4-diamine] are 10 µM and 0.0331 µM.
In the same order, the values of `CCCc1nc(N)nc(N)c1N1CCN(c2ccccn2)CC1` [Compound 56, 6-propyl-5-(4-(pyridin-2-yl)piperazin-1-yl)pyrimidine-2,4-diamine] are 6.76 µM and 0.0257 µM.
With `CCCc1nc(N)nc(N)c1N1CCN(c2ncc(C)cn2)CC1` [Compound 59, 5-(4-(5-methylpyrimidin-2-yl)piperazin-1-yl)-6-propylpyrimidine-2,4-diamine], the values for the IC50 in assay [1] (setting [3]) and in assay [2] were 8.13 µM and 0.0708 µM, respectively.
With `CCCc1nc(N)nc(N)c1N1CCN(c2ccc(OC)cn2)CC1` [Compound 60, 5-(4-(5-methoxypyridin-2-yl)piperazin-1-yl)-6-propylpyrimidine-2,4-diamine], the IC50 is 2.88 µM in assay [1] (setting [3]) and 0.02 µM in assay [2].
In the same order, the values of `Nc1ncc(N2CCN(c3cccc(-c4cccc(F)c4)c3)CC2)c(N)n1` [Compound 64] are 1.07 µM and 0.0115 µM.
The corresponding values for `N#Cc1cccc(-c2cccc(N3CCN(c4cnc(N)nc4N)CC3)c2)c1` [Compound 67] are 0.302 µM and 0.00389 µM.
Regarding `Cc1ncc(-c2cccc(N3CCN(c4cnc(N)nc4N)CC3)c2)cn1` [Compound 69, 5-(4-(3-(2-methylpyrimidin-5-yl)phenyl)piperazin-1-yl)pyrimidine-2,4-diamine], the IC50 in assay [2] is 0.00447 µM.
For the compound `Nc1ncc(N2CCN(c3cccc(-c4cncnc4)c3)CC2)c(N)n1` [Compound 74], the IC50 in assay [1] (setting [4]) is 3.09 µM.
Consider `COc1ncccc1-c1cccc(N2CCN(c3cnc(N)nc3N)CC2)c1` [Compound 80], for which the values for the IC50 in assay [1] (setting [3]) and in assay [2] were 1.02 µM and 0.00617 µM, respectively.
For `Nc1ncc(N2CCN(c3cccc(-c4cnc(C5CC5)nc4)c3)CC2)c(N)n1` [Compound 86], the IC50 in assay [1] (setting [4]) was 0.832 µM.
As to `CCc1ncc(-c2cccc(N3CCN(c4cnc(N)nc4N)CC3)c2)cn1` [Compound 95], the values for the IC50 in assay [1] (setting [3]), in assay [1] (setting [4]) and in assay [2] were 1.58 µM, 1.41 µM and 0.00724 µM, respectively.
In the case of `CN(C)c1ncc(-c2cccc(N3CCN(c4cnc(N)nc4N)CC3)c2)cn1` [Compound 96], the IC50 in assay [1] (setting [3]) is 1.15 µM; in assay [2] it was 0.01 µM.
The corresponding values for `CNc1ncc(-c2cccc(N3CCN(c4cnc(N)nc4N)CC3)c2)cn1` [Compound 97] are 0.741 µM and 0.00562 µM.
With `Nc1ncc(N2CCN(c3cccc(-c4cnc(Cl)nc4)c3)CC2)c(N)n1` [Compound 100], the IC50 in assay [1] (setting [3]) was 1.32 µM; in assay [1] (setting [4]), 1.32 µM; in assay [2] it was 0.00676 µM.
Consider `Nc1nc(N)c(N2CCN(c3ccccc3)CC2)c(CC2CC2)n1` [Compound 106], for which the IC50 was 5.89 µM in assay [1] (setting [3]) and 0.0275 µM in assay [2].
As to `Nc1ncc(N2CCN(c3cccc(C4CCOCC4)c3)CC2)c(N)n1` [Compound 110, 5-(4-(3-(tetrahydro-2H-pyran-4-yl)phenyl)piperazin-1-yl)pyrimidine-2,4-diamine], the IC50 in assay [1] (setting [3]) is 6.17 µM; in assay [1] (Table 20, pIC50 = -log10 IC50, at least three replicates, read-out: hDHFR pIC50-DHFR primary assay (converted)), 7.76 µM; in assay [2] it was 0.0347 µM.
As for `Cc1ncc(-c2cccc(C3CCN(c4cnc(N)nc4N)CC3)c2)cn1` [Compound 113, 5-(4-(3-(2-methylpyrimidin-5-yl)phenyl)piperidin-1-yl)pyrimidine-2,4-diamine], the IC50 in assay [1] (setting [3]) was 0.372 µM; in assay [2], 0.00617 µM.
On to `COc1ncc(-c2cccc(N3CCN(c4cnc(N)nc4N)CC3)n2)cn1` [Compound 158], for which the results for the IC50 in assay [1] (setting [3]) and in assay [2] (setting [5]) were 0.0182 µM and 0.00102 µM, respectively. Besides, the “Average DHFR selectivity (h/tg)” value in assay [2] (Table 16) is given as 17.78.
Turning to `COc1ncc(-c2cccc(N3CCN(c4cnc(N)nc4N)CC3)c2F)cn1` [Compound 159], the IC50 in assay [1] (setting [3]) is 2.34 µM; in assay [2] (setting [5]), 0.0302 µM. In addition, the “Average DHFR selectivity (h/tg)” value in assay [2] (Table 16) is 80.32.
